From US10183933B2, “Isoindolinone inhibitors of phosphatidylinositol 3-kinase” (Vertex Pharmaceuticals Incorporated, priority 2009, dated 2019)
pKi: −log10 of the molar value.

These compounds were tested against PI3K-gamma (Homo sapiens, UniProt P48736) (assay: PI3K inhibition assay (33P-ATP, PI(4,5)P2 substrate), PI3K-gamma). Conditions: not given.
Assay type: biochemical
Method: One test well also contained 1.5 μL of DMSO with no compound. […] Using a Titertek Multidrop, 50 μL of Reaction Mix [100 mM HEPES pH 7.5, 50 mM NaCl, 10 mM DTT, 0.2 mg/mL BSA, 60 μM phosphatidylinositol(4,5)bisphosphate diC16 (PI(4,5)P2; Avanti Polar Lipids, Cat. No. 840046P) and PI3K isoform of interest (see Table 3 for isoform concentrations)] was added to each well. To initiate the reaction, 50 μL of ATP Mix [20 mM MgCl2, 6 μM ATP (100 μCi/μmole ^33P-ATP)] was added each well, followed by incubating the wells for 30 min. at 25° C. Final concentrations in each well were 50 mM HEPES 7.5, 10 mM MgCl2, 25 mM NaCl, 5 mM DTT, 0.1 mg/mL BSA, 30 μM PI(4,5)P2, 3 μM ATP, and the PI3K isoform of interest (see Table 2). Final compound concentrations in each well ranged from 10 μM to 1 nM.
After incubation, the reactions in each well were quenched by addition of 50 μL of stop solution [30% TCA/Water, 10 mM ATP]. […] 50 μL of scintillation fluid was added to each well and the plate read on a Perkin-Elmer TopCount™ NXT liquid scintillation counter to obtain ^33P-counts representing inhibition values.
The value for the background well was subtracted from the value obtained for each test well and the data were fit to the competitive tight binding Ki equation described by Morrison and Stone, Comments Mol. Cell Biophys.
Wherever pKi is given: 2 nM enzyme.

PI3K-gamma, sequence (P48736 whole entry, species assumed): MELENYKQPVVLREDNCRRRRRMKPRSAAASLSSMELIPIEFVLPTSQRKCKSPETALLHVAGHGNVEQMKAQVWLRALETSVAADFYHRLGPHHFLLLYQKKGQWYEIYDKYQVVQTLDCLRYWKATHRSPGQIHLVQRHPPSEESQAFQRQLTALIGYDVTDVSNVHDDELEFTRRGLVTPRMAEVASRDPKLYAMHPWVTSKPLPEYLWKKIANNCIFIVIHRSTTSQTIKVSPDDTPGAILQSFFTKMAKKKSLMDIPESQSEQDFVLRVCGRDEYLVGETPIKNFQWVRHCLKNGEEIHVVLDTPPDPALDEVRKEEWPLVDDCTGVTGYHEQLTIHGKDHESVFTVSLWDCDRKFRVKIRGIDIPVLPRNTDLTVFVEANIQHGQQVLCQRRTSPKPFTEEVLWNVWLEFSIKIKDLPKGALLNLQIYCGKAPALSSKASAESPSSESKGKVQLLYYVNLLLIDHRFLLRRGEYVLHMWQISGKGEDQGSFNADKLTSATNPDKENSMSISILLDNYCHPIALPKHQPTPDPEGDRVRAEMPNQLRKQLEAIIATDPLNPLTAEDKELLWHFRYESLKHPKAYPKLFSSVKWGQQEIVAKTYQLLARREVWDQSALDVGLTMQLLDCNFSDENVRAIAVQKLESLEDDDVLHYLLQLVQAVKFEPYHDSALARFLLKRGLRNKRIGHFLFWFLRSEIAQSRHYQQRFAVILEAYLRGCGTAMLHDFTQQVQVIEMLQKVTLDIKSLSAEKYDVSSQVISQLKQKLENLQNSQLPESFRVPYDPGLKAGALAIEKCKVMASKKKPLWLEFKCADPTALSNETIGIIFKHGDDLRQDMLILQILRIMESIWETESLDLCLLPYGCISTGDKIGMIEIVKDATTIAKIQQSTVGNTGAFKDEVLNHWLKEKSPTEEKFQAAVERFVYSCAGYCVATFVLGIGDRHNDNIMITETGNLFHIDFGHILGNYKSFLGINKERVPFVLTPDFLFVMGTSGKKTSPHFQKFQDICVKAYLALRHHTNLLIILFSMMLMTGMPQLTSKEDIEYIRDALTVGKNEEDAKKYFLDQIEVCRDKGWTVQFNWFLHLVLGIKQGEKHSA

pKi	SMILES
> 7.00	Cc1cc(-c2cncc(OCC(F)F)c2)nc2c1C(=O)N(c1ccn(C3CCOC3)n1)C2 (single isomer, unassigned) [Compound 863]
> 7.00	Cc1cc(-c2cnc(C)c(OCC(F)F)c2)nc2c1C(=O)N(c1ccn(C3CCOC3)n1)C2 (single isomer, unassigned) [Compound 864]
> 7.00	Cc1cc(-c2cncc(S(=O)(=O)N(C)C)c2)nc2c1C(=O)N(c1ccn(C3CCOC3)n1)C2 (single isomer, unassigned) [Compound 954]
6.31 to 7.00	COc1cc(-c2ccc3c(c2)CN(c2cn[nH]c2)C3=O)cnc1OC [Compound 13]
6.31 to 7.00	N#CCn1cc(N2Cc3cc(-c4cncc(S(N)(=O)=O)c4)ccc3C2=O)cn1 [Compound 76]
5.60 to 6.30	COc1cc(-c2ccc3c(n2)CN(c2ccc(N(C)CCN(C)C)nc2)C3=O)cnc1OC [Compound 195]
5.60 to 6.30	COc1cc(-c2ccc3c(n2)C(N2CCCN(C)CC2)N(c2cnn(CC(F)(F)F)c2)C3=O)cnc1OC (centres unmarked) [Compound 663]
5.60 to 6.30	COc1cc(-c2ccc3c(n2)[C@@H](N2CCOCC2)N(c2cnn(CC(F)(F)F)c2)C3=O)cnc1OC [Compound 665]
5.60 to 6.30	COc1cncc(-c2cc(C)c3c(n2)C(OC)N(c2cc[nH]n2)C3=O)c1 (centres unmarked) [Compound 759]
6.31 to 7.00	COc1cncc(-c2cc(C)c3c(n2)C(C)(C)N(c2ccn(C[C@H](C)O)n2)C3=O)c1 [Compound 872]
> 7.00	CO/N=C/c1cncc(-c2cc(C)c3c(n2)C(C)(C)N(c2cnn(CC(F)(F)F)c2)C3=O)c1 [Compound 883]
> 7.00	Cc1cc(-c2cncc([S@+](C)[O-])c2)nc2c1C(=O)N(c1cnn(CC(F)(F)F)c1)C2(C)C [Compound 967]
> 7.00	Cc1cc(-c2cncc([S@@+](C)[O-])c2)nc2c1C(=O)N(c1cnn(CC(F)(F)F)c1)C2(C)C [Compound 968]

Each compound was assayed on activated microglia (assay: Microglia activation assay (LPS-treated mice, Iba1 IHC of brain)). Conditions: 10 mg/kg b.i.d. oral, LPS 0.5 mg/kg i.p., female C57Bl/6J mice.
Assay type: in vivo
Method: Female C57Bl/6J mice (7 weeks old) were purchased from Jackson Laboratory (Maine, US). Animals were acclimated for a week at standard laboratory conditions (12 hrs light cycles) with free access to rodent chow and water. All procedures were in accordance with the National Institute of Health Guidelines for the care and Use of Laboratory Animals and were approved by IACUCC. The endotoxin Lipopolysaccharide (LPS) (E. coli 011:B4, cat #437627) was purchased from Calbiochem. LPS was dissolved in PBS buffer at a concentration of 0.05 mg/ml and stored in frozen aliquots. At the start of the study, mice received an intraperitoneal (i.p.) injection of LPS (0.5 mg/kg) for three consecutive days. Therapeutic treatment with VRT compounds was started together with the 2nd LPS administration and maintained throughout the study. Compound was dosed twice a day orally by gavage for a total of 4 doses. 24 h following the last LPS injection, and 2 hrs following the last VRT dose, animals were sacrificed by CO2 asphyxiation. […]
Digital images were captured using the Aperio ScanScope Slide Scanner (Aperio Technologies, Vista, Calif.). Images were captured at 20× optical magnification, and analyzed using the software Definiens Developer XD. […] Compound efficacy was calculated as percent decrease in number of activated microglia relative to vehicle control.

SMILES	percent decrease in number of activated microglia relative to vehicle control [%]
Cc1cc(-c2cncc(OC(F)F)c2)nc2c1C(=O)N(c1cnn(CC(F)(F)F)c1)C2 [Compound 271]	39
